Like-named read-outs stand apart in the source and are kept apart here.
Tests used:
Ctenocephalides felis = Ctenocephalides felis oral test; assay type: in vivo; details: application rate 100 ppm in citrated cattle blood, after 2 days, adult cat fleas; for pest or weed control at 100 ppm: Ctenocephalides felis, po, 48 h, read-out: efficacy (kill in %)
Procedure: Ctenocephalides felis—Oral Test Solvent: dimethyl sulphoxide To produce a suitable active ingredient formulation, 10 mg of active ingredient are mixed with 0.5 ml of dimethyl sulphoxide. Dilution with citrated cattle blood gives the desired concentration. About 20 unfed adult cat fleas (Ctenocephalides felis) are placed into a chamber which is closed at the top and bottom with gauze. A metal cylinder whose bottom end is closed with parafilm is placed onto the chamber. The cylinder contains the blood/active ingredient formulation, which can be imbibed by the fleas through the parafilm membrane. After 2 days, the kill in % is determined. 100% means that all of the fleas have been killed; 0% means that none of the fleas have been killed.

Phaedon cochleariae = Phaedon cochleariae spray test; assay type: in vivo; details: after 7 days, Chinese cabbage leaf discs
Procedure, shortened: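 Larval kill read at day 7 as percent, where 100% means every larva dead and 0% none; larvae were placed on dried Brassica pekinensis leaf discs previously sprayed with the formulation (acetone/dimethylformamide solvent, alkylaryl polyglycol ether emulsifier, water).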

Lucilia cuprina = Lucilia cuprina test; assay type: in vivo; details: application rate 100 ppm, after 2 days, L1 larvae
Procedure: Lucilia cuprina Test Solvent: dimethyl sulphoxide To produce a suitable active ingredient formulation, 10 mg of active ingredient are mixed with 0.5 ml of dimethyl sulphoxide, and the concentrate is diluted with water to the desired concentration. About 20 L1 larvae of the Australian sheep blowfly (Lucilia cuprina) are transferred into a test vessel containing minced horsemeat and the active ingredient formulation of the desired concentration. After 2 days, the kill in % is determined. 100% means that all the larvae have been killed; 0% means that no larvae have been killed.

Spodoptera frugiperda = Spodoptera frugiperda spray test; assay type: in vivo; details: after 7 days, maize leaf discs; for pest or weed control at 100 g/ha / pest or weed control at 500 g/ha: Spodoptera frugiperda, foliar, 168 h, read-out: efficacy (caterpillars killed)
Procedure, shortened: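 Efficacy in % was scored at 7 days against armyworm caterpillars placed on dried, compound-sprayed Zea mays leaf discs. Compound was dissolved in acetone/dimethylformamide and diluted in water with 1000 ppm alkylaryl polyglycol ether. 100% means all caterpillars were killed.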

[1] = log P by HPLC on reversed-phase column (C 18), EEC Directive 79/831 Annex V.A8; assay type: physicochemical; details: 55° C.; for LOGP_HCOOH: log P (HCOOH); for chromatographic logP: reversed-phase HPLC column (C 18)
Procedure: Temperature: 55° C. […] Called log P (HCOOH) in the table. […] Called log P (neutral) in the table.

[2] = acidic range pH 2.7, 0.1% aqueous formic acid and acetonitrile, reversed-phase column (C 18)
[3] = log P, neutral range, HPLC on reversed-phase column (C 18)
[4] = Phaedon cochleariae, foliar, 168 h, application rate 500 g/ha, read-out: efficacy (beetle larvae killed)
[5] = pH 2.7, LC-MS acidic range, pH 2.7, 0.1% formic acid/acetonitrile, read-out: log P (acidic) / log P (HCOOH)
[6] = pH 7.8, LC-MS neutral range, pH 7.8, ammonium hydrogencarbonate/acetonitrile, read-out: log P (neutral)
[7] = acidic range at pH 2.7, 0.1% aqueous formic acid and acetonitrile, HPLC on reversed-phase column (C 18)

Row | Compound | efficacy (kill in %) (Ctenocephalides felis) [%] | efficacy (beetle larvae killed) (Phaedon cochleariae; application rate 100 g/ha) [%] | efficacy (beetle larvae killed) (Phaedon cochleariae; application rate 500 g/ha) [%] | efficacy (kill in %) (Lucilia cuprina) [%] | efficacy (caterpillars killed) (Spodoptera frugiperda; application rate 100 g/ha) [%] | efficacy (caterpillars killed) (Spodoptera frugiperda; application rate 500 g/ha) [%] | LOGP_HCOOH [1, 2] | LOGP_NEUTRAL [1, 3] | pest or weed control at 100 ppm (Ctenocephalides felis) [%] | pest or weed control at 100 g/ha (Phaedon cochleariae; Phaedon cochleariae, foliar, 168 h, application rate 100 g/ha, read-out: efficacy (beetle larvae killed)) [%] | pest or weed control at 500 g/ha (Phaedon cochleariae; [4]) [%] | pest or weed control at 100 g/ha (Spodoptera frugiperda; application rate 100 g/ha) [%] | pest or weed control at 500 g/ha (Spodoptera frugiperda; application rate 500 g/ha) [%] | chromatographic logP [1, 5] | chromatographic logP [1, 6] | LOGP_HCOOH [1, 7] | LOGP_NEUTRAL ([1]; log P (neutral), HPLC reversed-phase column (C 18))
1 | N#Cc1ccc(CNC(=O)c2cc(-c3ccc(C(F)(F)F)cc3)cc(NC(=O)C3CC3)n2)cc1 [Example I-005] | 100 | 100 | 100 | 100 | 100 | 100 | 3.73 | – | – | – | – | – | – | – | – | – | –
2 | O=C(NCc1ccc(Cl)cc1)c1cc(-c2ccc(C(F)(F)F)cc2)cc(NC(=O)C2CC2)n1 [Example I-008] | 100 | – | – | 95 | 100 | 100 | 4.48 | 4.34 | – | – | – | – | – | – | – | – | –
3 | CC(C)C(=O)Nc1cc(-c2ccc(C(F)(F)F)cc2)cc(C(=O)NCc2ccc(C#N)cc2)n1 [Example I-015] | 98 | 83 | 100 | 100 | 100 | 100 | 3.91 | 3.85 | – | – | – | – | – | – | – | – | –
4 | O=C(Nc1ccc(Cl)cc1)c1cc(-c2ccc(C(F)(F)F)cc2)cc(NC(=O)C2CC2)n1 [Example I-021] | – | – | 100 | 85 | – | 100 | 4.96 | 5.08 | – | – | – | – | – | – | – | – | –
5 | O=C(NCc1ccc(C(F)(F)F)cc1)c1cc(-c2ccc(C(F)(F)F)cc2)cc(NC(=O)C2CC2)n1 [Example I-027] | 100 | 100 | 100 | 90 | 100 | 100 | 4.62 | 4.50 | – | – | – | – | – | – | – | – | –
6 | O=C(NC1CC1)c1cc(-c2ccc(OC(F)F)cc2)cc(NC(=O)C2CC2)n1 [Example I-030] | 100 | 100 | 100 | 90 | 83 | 100 | 2.94 | 2.83 | – | – | – | – | – | – | – | – | –
7 | CN(Cc1ccc(C#N)cc1)C(=O)c1cc(-c2ccc(C(F)(F)F)cc2)cc(NC(=O)C2CC2)n1 [Example I-043] | 100 | – | 100 | 100 | – | 100 | 3.67 | 3.58 | – | – | – | – | – | – | – | – | –
8 | N#Cc1ccc(CNC(=O)c2cc(-c3ccc(OC(F)(F)F)cc3)cc(NC(=O)C3CC3)n2)cc1 [Example I-044, N-(4-Cyanobenzyl)-6-[(cyclopropylcarbonyl)amino]-4-[4-(trifluoromethoxy)phenyl]pyridine-2-carboxamide] | – | – | – | 100 | – | – | 3.90 | 3.76 | 100 | 100 | 100 | 100 | 100 | 3.9 | 3.76 | – | –
9 | CCC(=O)Nc1cc(-c2ccc(C(F)(F)F)cc2)cc(C(=O)NCc2ccc(C#N)cc2)n1 [Example I-048] | – | – | 100 | 100 | 83 | 100 | 4.59 | 3.47 | – | – | – | – | – | – | – | – | –
10 | N#Cc1ccc(CNC(=O)c2cc(-c3ccc(SC(F)(F)F)cc3)cc(NC(=O)C3CC3)n2)cc1 [Example I-052] | 100 | 100 | 100 | 100 | 100 | 100 | 4.19 | 4.01 | – | – | – | – | – | – | – | – | –
11 | CC(C)C(=O)Nc1cc(-c2ccc(OC(F)(F)F)cc2)cc(C(=O)NCc2cc(F)c(C#N)cc2F)n1 [Example I-110] | 100 | 100 | 100 | – | 100 | 100 | – | 4.19 | – | – | – | – | – | – | – | 4.33 | –
12 | O=C(NCc1ccccn1)c1cc(-c2ccc(OC(F)(F)F)cc2)cc(NC(=O)C2CC2)n1 [Example I-116] | 100 | 100 | 100 | – | – | 100 | – | 3.30 | – | – | – | – | – | – | – | 2.88 | –
13 | C#CC(C)NC(=O)c1cc(-c2ccc(OC(F)(F)F)cc2)cc(NC(=O)C2CC2)n1 (stereo not shown) [Example I-130] | 100 | 100 | 100 | – | 83 | 100 | – | – | – | – | – | – | – | – | – | 3.84 | –
14 | N#CCNC(=O)c1cc(-c2ccc(OC(F)(F)F)cc2)cc(NC(=O)C2CC2)n1 [Example I-131] | 100 | – | 100 | – | 100 | 100 | – | – | – | – | – | – | – | – | – | 3.15 | –
15 | O=C(NC1CCC1)c1cc(-c2ccc(OC(F)(F)F)cc2)cc(NC(=O)C2CC2)n1 [Example I-133] | 100 | – | – | 100 | 100 | 100 | – | – | – | – | – | – | – | – | – | 4.00 | –
16 | N#Cc1ccc(CNC(=O)c2cc(-c3ccc(SC4CC4)cc3)cc(NC(=O)C3CC3)n2)cc1 [Example I-142] | 100 | 100 | 100 | 90 | – | – | – | 3.86 | – | – | – | – | – | – | – | 4.07 | –
17 | N#Cc1ccc(CNC(=O)c2cc(-c3ccc([S+]([O-])C(F)F)cc3)cc(NC(=O)C3CC3)n2)cc1 (stereo not shown) [Example I-179] | 100 | 83 | 100 | – | – | 83 | – | 2.47 | – | – | – | – | – | – | – | 2.53 | –
18 | NC(=S)C1(NC(=O)c2cc(-c3ccc(OC(F)(F)F)cc3)cc(NC(=O)C3CC3)n2)CC1 [Example I-189] | 100 | 100 | 100 | – | 100 | 100 | – | 3.14 | – | – | – | – | – | – | – | 3.25 | –
19 | O=C(NCc1ccc(F)c(C(F)(F)F)c1)c1cc(-c2ccc(OC(F)(F)F)cc2)cc(NC(=O)C2CC2)n1 [Example I-226] | 100 | – | 100 | – | 83 | 100 | – | – | – | – | – | – | – | – | – | 4.64 | –
20 | COC(=O)N(C(=O)C1CC1)c1cc(-c2ccc(OC(F)(F)F)cc2)cc(C(=O)NCc2ccc(C#N)cc2)n1 [Example I-233, Methyl {6-[(4-cyanobenzyl)carbamoyl]-4-[4-(trifluoromethoxy)phenyl]pyridin-2-yl}(cyclopropylcarbonyl)carbamate] | – | – | – | – | – | – | 3.90 | – | 100 | – | 100 | 100 | 100 | 3.9 | 3.91 | – | 3.91

Reference: patent publication US20190053492A1, “SUBSTITUTED PYRIDINE COMPOUNDS AS PESTICIDES” (Bayer CropScience Aktiengesellschaft, priority 2016, published 2019)
